Test results as given in US20240270779A1, “NOVEL PHENYLPROPANOID COMPOUND” (NABOCUL COSMETICS CO., LTD., priority 2021, published 2024).

Tests used:
[1] = DPPH radical scavenging activity; format: biochemical; details: sample solutions 1-100 μM, 30 minutes at room temperature in the dark, absorbance 517 nm, FIG. 10
Experimental: Ceratonia siliqua B obtained in Example 2 was used to measure the DPPH radical scavenging activity of Ceratonia siliqua B.
First, Ceratonia siliqua B obtained in Example 2 was accurately weighed out and dissolved in methanol to prepare a sample solution with a concentration of 100 μM. This sample solution having a concentration of 100 μM was further diluted with methanol to obtain sample solutions with different concentrations of 1 μM, 5 μM, 10 μM and 50 μM. Next, 2 mg of DPPH (2,2-diphenyl-1-picrylhydrazyl) was dissolved in 50 mL of methanol to prepare a 100 μM DPPH solution.
A 190 μL portion of the DPPH solution was placed in each of wells of a 96-well microplate, and 10 μL of the sample solution was quickly added thereto. […] Thereafter, the absorbance at 517 nm (Asample) was measured with a microplate reader. The reaction solution to which methanol was added instead of the sample solution was used as a blank, and the absorbance of the blank (Ablank) was measured. In addition, the absorbance (Asample blank) due to coloration of the sample solution itself at each concentration was measured as a sample blank. […]
The radical scavenging rate (%) was determined by the following equation.
[formula] • wherein Ablank is the absorbance of the blank, Asample is the absorbance of the sample solution, and Asample blank is the absorbance of the sample blank.

HepG2 cells [2] = assay: MTT cytotoxicity test on HepG2 cells; format: cell-based, human; details: concentrations of 1 to 100 μM, 48 hours, FIG. 11
Experimental: (§1) In this test, a HepG2 cell, a human liver-derived tumor cell line was used as a living cell. HepG2 cells were cultured in a DMEM medium (containing 10% FBS, 100 U/mL penicillin and […] streptomycin) in the presence of 5% CO2 at 37° C. and saturated humidity.
(§2) Ceratonia siliqua B was diluted with a DMEM medium to obtain sample solutions with different concentrations of 1 μM, 5 μM, 10 μM, 50 μM and 100 μM.
First, an MTT test was performed to confirm the presence or absence of cytotoxicity of Ceratonia siliqua B against HepG2 cells. HepG2 cells that have been subcultured for three generations or more were treated with trypsin to prepare a single cell suspension having a concentration of 1×10^5 cells/mL. A 100 μL portion of this cell suspension was seeded in each well of a 96-well microplate and cultured in a CO2 incubator for 24 hours. After culturing, the supernatant was removed, and the wells were divided into a control (blank control) group and a test group. […] After 4 hours, the supernatant was removed, a 150 μL portion of DMSO was added to each well, and the absorbance at 570 nm was measured with a microplate reader. […]
(§3) The cell viability of the test group was calculated taking the value for the control (blank control) group as 100.

HepG2 cells [3] = assay: Measurement of ROS in HepG2 cells (hydrogen peroxide induced, DCFH-DA); format: cell-based, human; details: 1-100 μM, 24 hours pre-culture, 400 μM hydrogen peroxide 90 minutes, FIG. 12
Experimental: Ceratonia siliqua B obtained in Example 2 was used to examine the effect of Ceratonia siliqua B on the generation of reactive oxygen species (ROS) in living cells.
as §1
A HepG2 cell suspension having a concentration of 1×10^5 cells/mL was prepared, and a 100 μL portion of the cell suspension was seeded in each well of a 96-well microplate and cultured in a CO2 incubator for 24 hours. These wells were divided into a blank control group, a positive control group and a test group. […] Thereafter, the medium in each well was removed, 100 μL of PBS was added thereto, and fluorescence intensity at 535 nm was measured at an excitation wavelength of 485 nm. The amount of ROS generated in the positive control group and the test group was calculated taking the fluorescence intensity of the blank control group as 1.0 (basal). […]

B16 melanoma cells [4] = assay: MTT cytotoxicity test on B16 melanoma cells; format: cell-based, mouse; details: concentrations of 1 to 100 μM, 48 hours, FIG. 13
Experimental: (§4) In this test, B16 melanoma cells were used. A B16 melanoma cell, a mouse skin melanoma-derived cell line, has melanogenic capacity. B16 melanoma cells were cultured in a DMEM medium (containing 10% FBS, 100 U/mL penicillin and […] streptomycin) in the presence of 5% CO2 at 37° C. and saturated humidity.
as §2
First, an MTT test was performed to confirm the presence or absence of cytotoxicity of Ceratonia siliqua B against B16 melanoma cells. B16 melanoma cells that had been subcultured for three generations or more were treated with trypsin to prepare a single cell suspension having a concentration of 3×10^4 cells/mL. A 100 μL portion of this cell suspension was seeded in each well of a 96-well microplate and cultured overnight in a CO2 incubator. The supernatant was removed from each well, and the wells were divided into a control (blank control) group and a test group. […] After 4 hours, the supernatant was removed, a 150 μL portion of DMSO was added to each well, and the absorbance at 570 nm was measured with a microplate reader. […]
as §3

B16 melanoma cells [5] = assay: Amount of melanin produced in B16 melanoma cells (melanogenesis inhibition); format: cell-based, mouse; details: for inhibition at 10 µM: concentration 10 μM
Experimental: as §4, §2
A single cell suspension of B16 melanoma cells was prepared, and 4×10^4 B16 melanoma cells were seeded in each well of a 12-well microplate. After culturing overnight in a CO2 incubator, the supernatant was removed, and the wells were divided into a blank control group, a positive control group and a test group. A 1 mL portion of a DMEM medium was added to each well of the blank control group, a 1 mL portion of each of solutions of L-ascorbic acid dissolved in DMEM medium at different concentrations (a concentration of L-ascorbic acid: 0.1 μM, 5 μM, 10 μM) was added to each well of the positive control group, and a 1 mL portion of each of the sample solutions from the above (b) was added to each well of the test group. After culturing for 48 hours, the supernatant was removed from each well followed by washing twice with PBS buffer, treatment with trypsin and addition of 1.2 mL of PBS buffer to prepare a single cell suspension. A 200 μL aliquot of this cell suspension was taken to determine the protein content. The remaining cell suspension was centrifuged at 3000 rpm for 5 minutes to remove the supernatant. Thereafter, 250 μL of a 1 M NaOH solution containing 1% DMSO was added thereto and dissolved for 30 minutes in a water bath heated to 80° C. A 200 μL aliquot of this solution was taken and the absorbance at 405 nm (Atest group, Apositive control group, Ablank control group) was measured. The test was performed in triplicate (3 wells) for the blank control group, for the positive control group and for each concentration of the sample solution in the test group (n=3).
The intracellular melanogenesis inhibition rate (%) was determined for the test group and the positive control group by the following equations:
[formula] • wherein Atest group is the absorbance of the test group, Apositive control group is the absorbance of the positive control group, and Ablank control group is the absorbance of the blank control group.

[6] = Mus musculus, B16, 48 h, 48 hours, B16 melanoma cells, read-out: Melanogenesis inhibition rate (%)

| Compound | DPPH radical scavenging activity [1] | cytotoxicity against HepG2 cells (MTT, cell viability) (HepG2 cells [2]) | ROS generation inhibiting effect in HepG2 cells (HepG2 cells [3]) | cytotoxicity against B16 melanoma cells (MTT, cell viability) (B16 melanoma cells [4]) | inhibition at 10 µM (B16 melanoma cells [5]; [6]) [%] | inhibition at 50 µM (B16 melanoma cells [5]; Mus musculus, B16, 48 h, concentration 50 μM, 48 hours, B16 melanoma cells, read-out: Melanogenesis inhibition rate (%)) [%] | inhibition at 100 µM (B16 melanoma cells [5]; Mus musculus, B16, 48 h, concentration 100 μM, 48 hours, B16 melanoma cells, read-out: Melanogenesis inhibition rate (%)) [%] | inhibition effect on melanogenesis in B16 melanoma cells (in words) (B16 melanoma cells [5]; concentration of 10 to 100 μM, P<0.05) | inhibition at 0.1 µM (B16 melanoma cells [5]; Mus musculus, B16, 48 h, concentration 0.1 μM, 48 hours, B16 melanoma cells, read-out: Melanogenesis inhibition rate (%)) [%] | inhibition at 5 µM (B16 melanoma cells [5]; Mus musculus, B16, 48 h, concentration 5 μM, 48 hours, B16 melanoma cells, read-out: Melanogenesis inhibition rate (%)) [%] |
| --- | --- | --- | --- | --- | --- | --- | --- | --- | --- | --- |
| COc1cc(/C=C/COC(=O)C(C)C)cc(OC)c1O[C@@H]1O[C@H](CO)[C@@H](O)[C@H](O)[C@H]1O [Ceratonia siliqua B] | scavenge DPPH radicals in a concentration-dependent manner | no cytotoxicity | inhibited the increase in ROS induced by hydrogen peroxide in HepG2 cells in a concentration-dependent manner | no cytotoxicity | 20.2 | 25.6 | > 30 | significant inhibition effect on melanogenesis | – | – |
| O=C1O[C@H]([C@@H](O)CO)C(O)=C1O [L-Ascorbic acid, L-ascorbic acid, reference compound] | – | – | – | – | 32.8 | – | – | – | 9.2 | 15.6 |
